Reference: patent US20250288704A1, “CXCR4-LIGANDS FOR DIAGNOSTIC AND THERAPEUTIC USE AND PRECURSORS THEREOF” (priority 2021, published 2025)
Read-outs that look alike come from different tables or passages of the source. Positions of bridges follow the written chain, without caps; N, C: chain ends. Non-standard residues stand in square brackets, D forms with d. Residues, ends and D or L forms follow the SMILES beside them. Groups on a side chain read outwards from the residue. Chains are numbered I, II in the order given. *: point of attachment. X2 = OC[C@H]1O[C@@H](O[C@H]2[C@H](O)[C@@H](O)[C@H](*)O[C@@H]2CO)[C@H](O)[C@@H](O)[C@H]1O; X5 = CC(C)(C)[Si](F)(c1ccc(C[N+](C)(C)CC(=O)*)cc1)C(C)(C)C; DOTA = O=C(O)CN1CCN(CC(=O)O)CCN(CC(=O)*)CCN(CC(=O)O)CC1; dTyr(3-I) = N[C@H](Cc1ccc(O)c(I)c1)C(=O)O; 2Nal = N[C@@H](Cc1ccc2ccccc2c1)C(=O)O; dNMeOrn = CN[C@H](CCCN)C(=O)O; d(hCys) = N[C@H](CCS)C(=O)O; 4Amb = NCc1ccc(C(=O)O)cc1; 4Abz = Nc1ccc(C(=O)O)cc1; dDap = NC[C@@H](N)C(=O)O; Ahx = NCCCCCC(=O)O

Columns and labels:
[1] = Biodistribution in Jurkat tumor-bearing CB-17 SCID mice; assay type: in vivo; conditions: female, CB-17 SCID, mouse, in vivo, iv, total radioactivity
Description: All animal experiments were conducted in accordance with general animal welfare regulations in Germany and the institutional guidelines for the care and use of animals. To establish tumor xenografts, Jurkat cells (2-3×10^7 cells) were suspended in a mixture of Gibco's RPMI 1640 medium and Matrigel (1/1; v/v) from BD Biosciences (Heidelberg, Germany), and inoculated subcutaneously onto the right shoulder of 6-10 weeks old CB17-SCID mice from either Charles River GmbH (Sulzfeld, Germany) or the in-house mouse breeding facility. Mice were used when tumors had grown to a diameter of 5-8 mm (4-10 weeks after inoculation).
Approximately 0.5-20 MBq (0.02-0.20 nmol) of the ^125I-, ^177Lu-, ^99mTc-, ^18F- or ^68Ga-labeled ligand were injected into the tail vein of Jurkat tumor-bearing CB-17 SCID mice and the animals sacrificed after the respective biodistribution time. Selected organs were removed, weighted and measured in a γ-counter.

[2] = Octanol/PBS partition coefficient (logD7.4); assay type: physicochemical; conditions: n-octanol/PBS pH 7.4, radiolabeled compound
Description: The tubes were vortexed at maximum speed for 3 min to ensure equilibrium before centrifugation at 15.000×g for 5 min on a Biofuge 15 from Heraeus Holding GmbH (Osterode, Germany). An aliquot of 100 μL of each fraction was measured in the γ-counter and the log D7.4 calculated as follows: […]

[3] = system: CXCR4-expressing Chem_1 cells; assay: Determination of internalization, dual tracer with 125I-Fc-131; assay type: cell-based; conditions: for Cell-bound [%] / Internalized [%]: of total cellular activity
Description: CXCR4-expressing Chem_1 cells were grown in DMEM-F12 medium supplemented with 10 vol % FBS, 1 vol % NEA, 1 vol % PenStrep and 1 vol % HEPES (1.00 M). Cells were maintained in a 5% CO2 atmosphere at 37° C.
For in vitro experiments, cells were harvested by removal of the medium and incubation of the cells with trypsine/EDTA (0.05%/0.02%; w/v) for 30 in at 37° C.
Each well (n=3 for every time point) was either treated with 25 μL DMEM-F12 (+5 wt % BSA) or 25 μL of an AMD3100 stock (1 mM in H2O) for blockage of the receptors.
The experiment was stopped by placing the well-plate on ice and removing the supernatant. The cells were washed with 250 μL cold HBSS and the both fractions for each well combined, comprising the amount of unbound radioligand.
The supernatant was removed, the cells washed with cold HBSS and the respective fractions combined to obtain the amount of surface-bound radioligand.
The cells were then incubated with 300 μL NaOH (1.00 M in H2O) for at least 30 at r.t. before the supernatant was removed. The well was washed with another 300 μL NaOH and the fractions combined that contain the amount of internalized radioligand.
The three different fractions were subjected to activity measurement in the γ-counter, measuring the activity of the radionuclide used for the labeling of the peptide under investigation first. […] Data was corrected for non-specific internalization and referred to the specific internalization of the standard ligand

Row | tissue uptake at 1 h ([1]; % iD/g Blood) [%ID/g] | tissue uptake at 1 h ([1]; % iD/g Bone) [%ID/g] | tissue uptake at 1 h ([1]; % iD/g Heart) [%ID/g] | tissue uptake at 1 h ([1]; % iD/g Intestine) [%ID/g] | tissue uptake at 1 h ([1]; % iD/g Kidney) [%ID/g] | tissue uptake at 1 h ([1]; % iD/g Liver) [%ID/g] | tissue uptake at 1 h ([1]; % iD/g Lung) [%ID/g] | tissue uptake at 1 h ([1]; % iD/g Muscle) [%ID/g] | tissue uptake at 1 h ([1]; % iD/g Pancreas) [%ID/g] | tissue uptake at 1 h ([1]; % iD/g Spleen) [%ID/g] | tissue uptake at 1 h ([1]; % iD/g Stomach) [%ID/g] | tissue uptake at 1 h ([1]; % iD/g Tumor) [%ID/g] | SMILES | logD7.4 [2] | also measured
1 | 1.24 | 0.72 | 0.73 | 0.67 | 18.8 | 11 | 2.16 | 0.22 | 0.39 | 3.19 | 1.06 | 5.98 | C[C@@H](NC(=O)[C@@H](CCCNC(=N)N)NC(=O)[C@@H](CN)NC(=O)CN1CCN(CC(=O)O)CCN(CC(=O)O)CCN(CC(=O)O)CC1)C(=O)NCc1ccc(C(=O)NCCC[C@@H]2C(=O)N[C@@H](CCCNC(=N)N)C(=O)N[C@@H](Cc3ccc4ccccc4c3)C(=O)NCC(=O)N[C@H](Cc3ccc(O)cc3)C(=O)N2C)cc1 [CXCR4-DOTA-1 [Lu]] (cyclo([dY][dNMeOrn]([4Amb-dA-dR-dDap-DOTA])R[2Nal]G)) |  | 
2 |  |  |  |  |  |  |  |  |  |  |  |  | C[C@@H](NC(=O)[C@@H](CCCNC(=N)N)NC(=O)[C@@H](CN)NC(=O)CN1CCN(CC(=O)O)CCN(CC(=O)O)CCN(CC(=O)O)CC1)C(=O)Nc1ccc(C(=O)NCCC[C@@H]2C(=O)N[C@@H](CCCNC(=N)N)C(=O)N[C@@H](Cc3ccc4ccccc4c3)C(=O)NCC(=O)N[C@H](Cc3ccc(O)cc3)C(=O)N2C)cc1 [CXCR4-DOTA-3 [Ga]] (cyclo([dY][dNMeOrn]([4Abz-dA-dR-dDap-DOTA])R[2Nal]G)) | −3.35 ± 0.08 (5) | 
3 |  |  |  |  |  |  |  |  |  |  |  |  | C[C@@H](NC(=O)[C@@H](CCCNC(=N)N)NC(=O)[C@@H](CN)NC(=O)CN1CCN(CC(=O)O)CCN(CC(=O)O)CCN(CC(=O)O)CC1)C(=O)Nc1ccc(C(=O)NCCC[C@@H]2C(=O)N[C@@H](CCCNC(=N)N)C(=O)N[C@@H](Cc3ccc4ccccc4c3)C(=O)NCC(=O)N[C@H](Cc3ccc(O)c(I)c3)C(=O)N2C)cc1 [CXCR4-DOTA-4 [Ga]] (cyclo([dTyr(3-I)][dNMeOrn]([4Abz-dA-dR-dDap-DOTA])R[2Nal]G)) | −2.65 ± 0.22 (6) | 
4 |  |  |  |  |  |  |  |  |  |  |  |  | C[C@@H](NC(=O)[C@@H](CCCNC(=N)N)NC(=O)[C@@H](CNC(=O)c1ccc([Si](F)(C(C)(C)C)C(C)(C)C)cc1)NC(=O)CC[C@H](C(=O)O)N1CCN(CC(=O)O)CCN(CC(=O)O)CCN(CC(=O)O)CC1)C(=O)Nc1ccc(C(=O)NCCC[C@@H]2C(=O)N[C@@H](CCCNC(=N)N)C(=O)N[C@@H](Cc3ccc4ccccc4c3)C(=O)NCC(=O)N[C@H](Cc3ccc(O)cc3)C(=O)N2C)cc1 [CXCR4-SiFA-1 [Ga]] | 0.66 ± 0.01 (8) | 
5 |  |  |  |  |  |  |  |  |  |  |  |  | C[C@@H](NC(=O)[C@@H](CCCNC(=N)N)NC(=O)[C@@H](CN)NC(=O)CCCCCNC(=O)[C@@H](CNC(=O)CN1CCN(CC(=O)O)CCN(CC(=O)O)CCN(CC(=O)O)CC1)NC(=O)[C@@H](CCS[C@@H]1O[C@H](CO)[C@@H](O[C@@H]2O[C@H](CO)[C@H](O)[C@H](O)[C@H]2O)[C@H](O)[C@H]1O)NC(=O)C[N+](C)(C)Cc1ccc([Si](F)(C(C)(C)C)C(C)(C)C)cc1)C(=O)Nc1ccc(C(=O)NCCC[C@@H]2C(=O)N[C@@H](CCCNC(=N)N)C(=O)N[C@@H](Cc3ccc4ccccc4c3)C(=O)NCC(=O)N[C@H](Cc3ccc(O)cc3)C(=O)N2C)cc1 [CXCR4-SiFA-7 [Ga]] (I: X5-[d(hCys)](X2)[dDap](DOTA)[Ahx][dDap][dR][dA][4Abz] / II: cyclo([dY][dNMeOrn]R[2Nal]G); amide I:C-II:2) |  | tissue uptake at 1 h ([1]; Blood, 1 h p.i., Jurkat xenograft, CB-17 SCID female mice, read-out: % iD/g Blood): 0.85 %ID/g; tissue uptake at 1 h ([1]; Bone, 1 h p.i., Jurkat xenograft, CB-17 SCID female mice, read-out: % iD/g Bone): 2.89 %ID/g; tissue uptake at 1 h ([1]; Heart, 1 h p.i., Jurkat xenograft, CB-17 SCID female mice, read-out: % iD/g Heart): 1.13 %ID/g; tissue uptake at 1 h ([1]; Intestine, 1 h p.i., Jurkat xenograft, CB-17 SCID female mice, read-out: % iD/g Intestine): 0.81 %ID/g; tissue uptake at 1 h ([1]; Kidney, 1 h p.i., Jurkat xenograft, CB-17 SCID female mice, read-out: % iD/g Kidney): 11.1 %ID/g; tissue uptake at 1 h ([1]; Liver, 1 h p.i., Jurkat xenograft, CB-17 SCID female mice, read-out: % iD/g Liver): 53.5 %ID/g; tissue uptake at 1 h ([1]; Lung, 1 h p.i., Jurkat xenograft, CB-17 SCID female mice, read-out: % iD/g Lung): 2.13 %ID/g; tissue uptake at 1 h ([1]; Muscle, 1 h p.i., Jurkat xenograft, CB-17 SCID female mice, read-out: % iD/g Muscle): 0.26 %ID/g; tissue uptake at 1 h ([1]; Pancreas, 1 h p.i., Jurkat xenograft, CB-17 SCID female mice, read-out: % iD/g Pancreas): 0.51 %ID/g; tissue uptake at 1 h ([1]; Spleen, 1 h p.i., Jurkat xenograft, CB-17 SCID female mice, read-out: % iD/g Spleen): 6.96 %ID/g; tissue uptake at 1 h ([1]; Stomach, 1 h p.i., Jurkat xenograft, CB-17 SCID female mice, read-out: % iD/g Stomach): 0.63 %ID/g; tissue uptake at 1 h ([1]; Tumor, 1 h p.i., Jurkat xenograft, CB-17 SCID female mice, read-out: % iD/g Tumor): 0.67 %ID/g
6 | 1.29 | 0.48 | 0.56 | 0.43 | 2.75 | 1.59 | 1.57 | 0.19 | 0.14 | 1.48 | 0.51 | 7.58 | CN1C(=O)[C@@H](Cc2ccc(O)cc2)NC(=O)CNC(=O)[C@H](Cc2ccc3ccccc3c2)NC(=O)[C@H](CCCNC(=N)N)NC(=O)[C@H]1CCCNC(=O)c1ccc(CNC(=O)CN2CCN(CC(=O)O)CCN(CC(=O)O)CCN(CC(=O)O)CC2)cc1 [^68Ga-Pentixafor, cyclo(D-Tyr^1-D-[NMe](DOTA)-Orn^2Arg^3-Nal^4-Gly^5), metal not drawn, reference compound] (cyclo([dY][dNMeOrn]([4Amb-DOTA])R[2Nal]G)) |  | 

Row | SMILES | tissue uptake at 1 h ([1]; % iD/g Blood) [%ID/g] | tissue uptake at 1 h ([1]; % iD/g Bone) [%ID/g] | tissue uptake at 1 h ([1]; % iD/g Heart) [%ID/g] | tissue uptake at 1 h ([1]; % iD/g Intestine) [%ID/g] | tissue uptake at 1 h ([1]; % iD/g Kidney) [%ID/g] | tissue uptake at 1 h ([1]; % iD/g Liver) [%ID/g] | tissue uptake at 1 h ([1]; % iD/g Lung) [%ID/g] | tissue uptake at 1 h ([1]; % iD/g Muscle) [%ID/g] | tissue uptake at 1 h ([1]; % iD/g Pancreas) [%ID/g] | tissue uptake at 1 h ([1]; % iD/g Spleen) [%ID/g] | tissue uptake at 1 h ([1]; % iD/g Stomach) [%ID/g] | tissue uptake at 1 h ([1]; % iD/g Tumor) [%ID/g] | logD7.4 [2] | also measured
7 | C[C@@H](NC(=O)[C@@H](CCCNC(=N)N)NC(=O)[C@@H](CN)NC(=O)CCCCCNC(=O)[C@@H](CNC(=O)CN1CCN(CC(=O)O)CCN(CC(=O)O)CCN(CC(=O)O)CC1)NC(=O)CCCCC[N+]1=C(/C=C/C=C/C=C2/N(C)c3ccc(S(=O)(=O)O)cc3C2(C)C)C(C)(C)c2cc(S(=O)(=O)[O-])ccc21)C(=O)Nc1ccc(C(=O)NCCC[C@@H]2C(=O)N[C@@H](CCCNC(=N)N)C(=O)N[C@@H](Cc3ccc4ccccc4c3)C(=O)NCC(=O)N[C@H](Cc3ccc(O)cc3)C(=O)N2C)cc1 [[^natLu]CXCR4-OI-3, metal not drawn] | 1.9 | 1.1 | 1.39 | 0.85 | 35 | 36.3 | 4.28 | 0.33 | 0.44 | 5.94 | 1.43 | 2.13 |  | Internalized in relation to 125I-Fc-131 [%] ([3]; 30 min): 442 ± 12.1%; Cell-bound [%] ([3]; 30 min): 5.39 ± 0.41%; Internalized [%] ([3]; 30 min): 16.5 ± 0.19%; Internalized in relation to 125I-Fc-131 [%] ([3]; 90 min): 540 ± 42.7%; Cell-bound [%] ([3]; 90 min): 5.36 ± 0.47%; Internalized [%] ([3]; 90 min): 25.2 ± 1.08%
